In patent US10227347B2, “Purinyl-N-hydroxyl pyrimidine formamide derivative, preparation methods and uses thereof” (Guizhou Bailing Group Pharmaceutical CO., LTD., priority 2015, dated 2019):

How the values were obtained:
[1] = system: MV4-11 subcutaneous tumor; conditions: 10 mg/kg i.v., once per two days, 22 days
Source text: During drug administration, measuring the weight and gross tumor volume of the mice per 2 days and keeping a record. The calculation formula is as V=π/6×A^2×B, where, where, V=gross tumor volume (mm^3), A=tumor width (mm) and B=tumor length (mm). Observing and keeping a record for the survival condition of the tested animals. After drug discontinuance, killing the mice through cervical dislocation and peeling off their tumors as per the operation specification of animal experiment. Evaluating the inhibition capability of the compounds to tumor activities by calculating the tumor inhibitory rate with the formula as: tumor inhibitory rate=(1−tumor weight of treatment group/tumor weight of control group)×100%. Analyzing and comparing the difference between each treatment group and control group with the method of t-test. The grading of significance level of difference is: ***, P<0.001; **, P<0.01; *, P<0.05; no statistical significance (ns), P>0.05.

[2] = target: T1, HDAC3 (Homo sapiens, UniProt O15379); test: HDAC3 enzyme inhibition (Lys-Ac-AMC); type: biochemical; conditions: Table 4, graded
T1 construct: purchased BPS Bioscience 50003
Description: (§1) Determining the inhibition capability of HDAC through the substrate method of fluorophore coupled acetylized peptide fragment (Lys-Ac-AMC). HDAC2-11 proteins of subtypes are purchased from BPS Bioscience Company with the Art. […] The reaction buffer system is a modified Tris buffer (pH7.0). The small molecule compounds are prepared and dissolved with 100% DMSO. […] Adding the compound into the reaction wells of the 384 well plate at the designed concentration, then adding 15 μL HDAC enzyme solution into the reaction wells (adding 15 μL blank buffer into the control well 0) for incubation under ambient temperature for 15 min; then adding 10 μL substrate solution to start reaction.
(§2) Analyzing the result data with the software GraphPad Prism and calculating the value of IC50 as per the formula: Y=background data+(top data−background data)/(1+10^((Log IC50−X)*rate of curve)). Where, Y refers to the inhibition ratio (%) and X refers to the compound concentration.

[3] = system: OCI-LY1 cells (B-cell lymphoma); test: Proliferation inhibition, OCI-LY1 (cck-8); type: cell-based; conditions: Homo sapiens, 96 h incubation
Source text: Calculating the value of IC50 as per the formula: Y=background data+(top data−background data)/(1+10^((Log IC50−X)*rate of curve)). Where, Y refers to the inhibition ratio (%) and X refers to the compound concentration.

[4] = target: T2, PI3Kδ (Homo sapiens, UniProt O00329); test: PI3Kδ activity inhibition (Kinase-Glo); type: biochemical
T2 construct: purchased Millipore 14-604-K
Description: Detecting the inhibition capability of the compound to PI3Kα and PI3Kδ activities with Kinase-Glo (purchased from Promege Company; Catalog No.: V3771). […] The reaction system also comprises substrates as PIP2 (4, 5-diphosphoinositide, purchased from Life Technologies Company) and ATP (triphosadenine, purchased from Sigma Company). The reaction buffer system comprises 50 mM HEPES (4-hydroxyethylpiperazine ethane sulfonic acid), 3 mM MgCl2, 1 mM EGTA (ethylene glycol bis(2-amino ethylether)quadrol), 100 mM NaCl, 0.03% CHAPS (3-[3-(cholamidopropyl)dimethylamino]-1-propanesulfonic acid), 2 mM DTT (dithiothreitol). The pH value of the reaction buffer is 7.5. […] Mixing the system evenly for incubation under ambient temperature (for 1 h in PI3Kα test and for 2 h in PI3Kδ test). After incubation, adding 10 μL Kinase-Glo which has been preheated to ambient temperature into each reaction well to terminate the reaction; shaking it in dark place for 15 min after it is mixed evenly, then measuring the fluorescence intensity with a microplate reader and analyzing the result data with the software GraphPad Prism.
Calculating the value of IC50 as per the formula: Y=background data+(top data−background data)/(1+10^((Log IC50−X)*rate of curve))
Where, Y refers to the inhibition ratio (%) and X refers to the compound concentration.

[5] = target: T3, HDAC6 (Homo sapiens, UniProt Q9UBN7); test: HDAC6 enzyme inhibition (Lys-Ac-AMC); type: biochemical; conditions: Table 4, graded
T3 construct: purchased BPS Bioscience 50006
T3 sequence (Q9UBN7 1-1215): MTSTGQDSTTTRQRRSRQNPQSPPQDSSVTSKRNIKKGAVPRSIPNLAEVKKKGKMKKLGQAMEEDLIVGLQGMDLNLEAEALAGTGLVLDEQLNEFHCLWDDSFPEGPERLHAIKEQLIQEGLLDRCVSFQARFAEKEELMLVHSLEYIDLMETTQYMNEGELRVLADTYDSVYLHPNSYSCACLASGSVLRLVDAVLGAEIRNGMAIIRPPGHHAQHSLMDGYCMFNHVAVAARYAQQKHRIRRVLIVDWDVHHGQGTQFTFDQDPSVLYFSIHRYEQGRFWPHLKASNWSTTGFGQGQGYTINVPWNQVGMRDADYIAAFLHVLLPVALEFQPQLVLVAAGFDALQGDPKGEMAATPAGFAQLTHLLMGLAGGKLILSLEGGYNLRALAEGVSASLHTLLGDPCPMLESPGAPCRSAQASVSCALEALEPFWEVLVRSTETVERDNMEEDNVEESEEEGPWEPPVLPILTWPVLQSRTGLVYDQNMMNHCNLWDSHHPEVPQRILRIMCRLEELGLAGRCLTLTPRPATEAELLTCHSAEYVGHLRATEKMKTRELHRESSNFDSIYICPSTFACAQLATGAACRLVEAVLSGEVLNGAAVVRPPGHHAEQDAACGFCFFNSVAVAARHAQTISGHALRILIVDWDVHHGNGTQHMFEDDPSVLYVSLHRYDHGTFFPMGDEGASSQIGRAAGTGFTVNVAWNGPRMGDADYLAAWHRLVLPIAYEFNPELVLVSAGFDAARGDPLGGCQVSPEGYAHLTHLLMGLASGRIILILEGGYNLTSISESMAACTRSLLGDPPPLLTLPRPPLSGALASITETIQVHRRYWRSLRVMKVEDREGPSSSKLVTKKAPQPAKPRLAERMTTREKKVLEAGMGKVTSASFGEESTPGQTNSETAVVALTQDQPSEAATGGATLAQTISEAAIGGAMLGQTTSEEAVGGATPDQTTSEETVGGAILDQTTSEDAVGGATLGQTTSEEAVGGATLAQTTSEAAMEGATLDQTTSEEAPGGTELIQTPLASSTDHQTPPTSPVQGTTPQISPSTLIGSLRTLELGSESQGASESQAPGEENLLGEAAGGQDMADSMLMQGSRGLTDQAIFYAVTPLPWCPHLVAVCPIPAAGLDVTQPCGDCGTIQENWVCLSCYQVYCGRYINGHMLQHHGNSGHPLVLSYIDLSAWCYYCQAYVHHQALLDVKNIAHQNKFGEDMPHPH
Description: as §1, §2

T2 sequence (O00329 whole entry): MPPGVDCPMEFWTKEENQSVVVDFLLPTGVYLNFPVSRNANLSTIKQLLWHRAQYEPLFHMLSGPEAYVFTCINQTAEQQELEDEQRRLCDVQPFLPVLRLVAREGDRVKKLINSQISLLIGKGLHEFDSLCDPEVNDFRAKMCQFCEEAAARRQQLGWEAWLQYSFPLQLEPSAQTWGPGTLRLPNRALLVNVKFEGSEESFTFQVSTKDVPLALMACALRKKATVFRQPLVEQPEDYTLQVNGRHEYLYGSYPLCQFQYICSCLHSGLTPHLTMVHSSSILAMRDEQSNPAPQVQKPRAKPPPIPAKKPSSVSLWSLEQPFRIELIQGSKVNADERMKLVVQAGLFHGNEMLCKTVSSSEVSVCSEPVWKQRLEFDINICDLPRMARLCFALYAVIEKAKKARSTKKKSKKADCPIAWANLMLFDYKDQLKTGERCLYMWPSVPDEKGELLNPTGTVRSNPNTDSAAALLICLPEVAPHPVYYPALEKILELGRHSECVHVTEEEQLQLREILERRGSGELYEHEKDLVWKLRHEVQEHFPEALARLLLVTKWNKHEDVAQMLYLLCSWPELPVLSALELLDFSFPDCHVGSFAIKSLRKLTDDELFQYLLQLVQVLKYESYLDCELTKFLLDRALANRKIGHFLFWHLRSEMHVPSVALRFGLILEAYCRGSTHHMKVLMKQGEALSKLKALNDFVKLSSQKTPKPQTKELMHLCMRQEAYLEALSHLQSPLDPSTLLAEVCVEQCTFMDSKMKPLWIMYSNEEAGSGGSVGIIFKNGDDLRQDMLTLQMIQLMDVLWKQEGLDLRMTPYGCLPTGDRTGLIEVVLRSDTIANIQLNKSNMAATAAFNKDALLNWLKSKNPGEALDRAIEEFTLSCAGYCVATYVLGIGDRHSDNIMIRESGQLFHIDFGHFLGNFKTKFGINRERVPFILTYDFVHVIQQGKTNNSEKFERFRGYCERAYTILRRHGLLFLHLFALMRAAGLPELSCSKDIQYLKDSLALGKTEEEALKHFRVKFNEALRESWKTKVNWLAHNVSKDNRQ
T2 sequence (P27986 whole entry partner): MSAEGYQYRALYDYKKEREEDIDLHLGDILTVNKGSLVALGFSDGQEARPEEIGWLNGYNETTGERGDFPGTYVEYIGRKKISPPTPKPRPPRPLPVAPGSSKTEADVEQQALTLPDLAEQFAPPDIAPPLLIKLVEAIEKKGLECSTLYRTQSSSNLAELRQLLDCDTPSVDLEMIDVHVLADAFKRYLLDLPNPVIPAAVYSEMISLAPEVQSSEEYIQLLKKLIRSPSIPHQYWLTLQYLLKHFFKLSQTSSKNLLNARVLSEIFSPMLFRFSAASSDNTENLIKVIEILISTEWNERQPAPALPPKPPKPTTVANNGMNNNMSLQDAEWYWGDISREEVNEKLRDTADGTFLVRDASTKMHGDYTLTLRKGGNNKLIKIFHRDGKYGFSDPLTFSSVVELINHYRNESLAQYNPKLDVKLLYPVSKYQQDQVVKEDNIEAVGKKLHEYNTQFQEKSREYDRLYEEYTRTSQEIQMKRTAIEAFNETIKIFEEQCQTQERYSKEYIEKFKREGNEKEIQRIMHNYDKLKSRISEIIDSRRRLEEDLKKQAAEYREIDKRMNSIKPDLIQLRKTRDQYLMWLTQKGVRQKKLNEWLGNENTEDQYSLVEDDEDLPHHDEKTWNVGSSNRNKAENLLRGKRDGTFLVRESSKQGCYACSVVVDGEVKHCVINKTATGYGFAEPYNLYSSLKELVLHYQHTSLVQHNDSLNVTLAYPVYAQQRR
T1 sequence (O15379 whole entry, species assumed): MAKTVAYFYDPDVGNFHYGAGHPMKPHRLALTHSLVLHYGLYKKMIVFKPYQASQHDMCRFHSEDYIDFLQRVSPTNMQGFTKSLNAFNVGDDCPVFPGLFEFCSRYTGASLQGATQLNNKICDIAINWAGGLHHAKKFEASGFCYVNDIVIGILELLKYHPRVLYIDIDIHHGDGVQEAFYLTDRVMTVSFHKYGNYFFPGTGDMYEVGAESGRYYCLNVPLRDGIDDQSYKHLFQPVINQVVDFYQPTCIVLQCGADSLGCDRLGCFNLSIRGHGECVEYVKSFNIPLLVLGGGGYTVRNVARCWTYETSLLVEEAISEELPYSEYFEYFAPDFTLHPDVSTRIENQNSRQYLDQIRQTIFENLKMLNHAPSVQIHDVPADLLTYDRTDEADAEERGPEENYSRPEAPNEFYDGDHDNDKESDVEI
T1 sequence (Q9Y618 395-489 partner limits assumed, species assumed): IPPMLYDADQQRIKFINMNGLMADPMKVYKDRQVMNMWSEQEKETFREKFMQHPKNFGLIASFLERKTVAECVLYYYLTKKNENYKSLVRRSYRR

Row | SMILES | Final survival condition (survived individuals/total individuals) [1] | IC50 [2] | IC50 [3] | IC50 ([4]; Table 4, graded) | IC50 [5] | IC50 ([4]; Table 1, graded) | Tumor inhibitory rate (%) [1]
1 | COc1ccc(-c2nc(N3CCOCC3)c3nc(CN(C)c4ncc(C(=O)NO)cn4)n(C)c3n2)cc1 [CLJ-29, 2-(((2-(4-methoxyphenyl)-9-methyl-6-morpholine-9H-purine-8-yl))methyl(methyl)amino)-N-hydroxyl pyrimidine-5-formamide] | 4/6 | 1 to 100 nM | 1 to 10 nM | > 10000 nM | 1 to 100 nM |  | 
2 | COc1ccc(-c2nc(N3CCOCC3)c3nc(CN(C)c4ncc(C(=O)NO)cn4)n(C)c3n2)cn1 [CLJ-1, 2-(((2-(6-methoxypyridine-3-yl)-9-methyl-6-morpholine-9H-purine-8-yl))methyl(methyl)amino)-N-hydroxyl pyrimidine-5-formamide] | 5/6 | 1 to 100 nM | 10 to 100 nM | 100 to 1000 nM | 1 to 100 nM | 100 to 1000 nM | 
3 | CN(Cc1nc2c(N3CCOCC3)nc(-c3cnc(N)nc3)nc2n1C)c1ncc(C(=O)NO)cn1 [CLJ-11, 2-(((2-(2-aminopyrimidine-5-yl)-9-methyl-6-morpholine-9H-purine-8-yl))methyl(methyl)amino)-N-hydroxyl pyrimidine-5-formamide] | 4/6 | 1 to 100 nM | 100 to 1000 nM | 1 to 100 nM | 1 to 100 nM | 100 to 1000 nM | 45.1%
4 | Cc1[nH]c2ccccc2c1CCNCc1ccc(/C=C/C(=O)NO)cc1 [LBH589, panobinostat, reference compound] |  |  | 10 to 100 nM | > 10000 nM |  |  | 
5 | CN(Cc1nc2c(N3CCOCC3)nc(-c3ccc(N)cc3)nc2n1C)c1ncc(C(=O)NO)cn1 [CLJ-44] | 6/6 | 1 to 100 nM | 10 to 100 nM | > 10000 nM | 1 to 100 nM |  | 
